Experimental data published in patent publication US5424394A, “Synthetic preparation of amylin and amylin analogues” (priority 1993, dated 1995).
Read-outs that look alike come from different tables or passages of the source. Ends that are not written are not given here.

Test system: isolated rat soleus muscle
Experiment: insulin-stimulated incorporation of labelled glucose into glycogen in isolated rat soleus muscle (soleus muscle assay)
Format: cell-based
Excerpt: According to the present invention, we have developed methods for the efficient synthesis of amylin and amylin analogs which result in peptides of high purity which are substantially free of deletion peptides and other contaminating peptides and which show reproducibly high biological activity as measured by assays of its ability to cause resistance to insulin in vitro by inhibiting insulin-stimulated incorporation of labelled glucose into glycogen in isolated rat soleus muscle.
The present invention also provides synthetic human amylin produced by solid phase peptide synthesis which has an EC50 of about 2.5 nanomoles/liter±0.3 log units or less according to an assay of insulin-stimulated incorporation of labelled glucose into glycogen in isolated rat soleus muscle. In an especially preferred aspect, such synthetic human amylin is substantially free of deletion and other contaminating peptides. […]

“Human Amylin (KCNTATCATQRLANFLVHSSNNFGAILSSTNVGSNTY-NH2; cysteine pairing not given here; UniProt P10997 34-70, looked up) [37-amino acid peptide with internal disulfide bond and C-terminal amide, made by solid phase peptide synthesis]” was tested. Which EC50 (peptide at least about 95% pure after preparative RP-HPLC, read-out: EC50 as measured by soleus muscle assay) did it give?
The EC50 was less than 5 nM.

What about the EC50 (±0.3 log units, inhibition of insulin-stimulated glycogen synthesis, read-out: EC50 according to an assay of insulin-stimulated incorporation of labelled glucose into glycogen in isolated rat soleus muscle) of the same substance?
The EC50 was no more than 2.5 nM.
